Experimental data reported in US4241069A, “3-Methylene flavanones and 3-methylene chromanones” (Miles Laboratories, Inc., priority 1979, dated 1980).
Values after ≈ are worked out from the molar mass of the structure shown.

Key:
[1] = test system: A. fumigatus NRRL 163; test: MIC, agar incorporation method; type: cell-based; details: 32° C., 48-72 hours; for MIC: Aspergillus fumigatus, NRRL163, NRRL 163, read-out: Minimal Inhibitory Concentration
Method: (§1) The compounds of the present invention were tested for their ability to inhibit the growth of microorganisms by in vitro tests. Generally the in vitro tests involve growing representative microorganisms under conditions favorable to such growth and measuring the effectiveness of one or more compounds in inhibiting or destroying the growth of the microorganisms. The microorganisms used include representative bacteria, fungi and yeasts.
(§2) A representative selection of the test microorganisms were cultured in a nutrient broth, such as, for example, Eugon, commercially available from Difco Laboratories, Detroit, Michigan. Bacteria and Candida species were cultured for 24 hours at 32°-37° C. and fungi were cultured for approximately one week at 32° C. Inocula were prepared by suspending the growth or spores from a slant culture in sufficient sterile normal (0.9 percent) saline or Eugon broth, to yield cell or spore concentrations of 1,000,000 cells per milliliter. Anaerobic bacteria were cultured for 48-72 hours at 32°-37° C. in a thioglycollate containing medium, for example, Fluid Thioglycollate medium or NIH thioglycollate broth, commercially available from Difco Laboratories.
(§3) The compounds of the present invention were tested for activity against bacteria, yeasts and fungi by the agar incorporation method described below. MA 1347, 3-(dimethylaminomethyl)flavanone (disclosed in U.S. Pat. No. 3,753,985) was used as a comparative standard along with controls for each solvent system used.
(§4) A series of agar plates containing two-fold dilutions of each compound to be tested, ranging in concentration from 100 to 3.1 mcg/ml of agar medium was prepared. Aliquots of each concentration (100, 50, 25, 12.5, 6.2, and 3.1) prepared in N,N-dimethylformamide or 50 percent aqueous DMF were added to liquid Eugon agar at 48° C. (one part test solution to 100 parts agar). In some cases, tests with further dilutions to 0.125 mcg/ml were conducted. The agar medium, containing the 3-methylene flavanone or chromanone compound to be tested, was then dispensed into petri dishes and allowed to solidify. The solidified plates were kept overnight at room temperatures to dry the surface of the agar.
(§5) The agar plates were then inoculated with a drop of the standardized cell or spore suspension. Inoculated plates were incubated at 32° C. The inhibition end-point or minimum inhibitory concentration (MIC) shown in Table D represent the lowest concentration of test compound which inhibited the growth of the microorganism. Visual determination of growth inhibition was used. Bacteria and yeast end-points were determined after 24 hours incubation; molds, dermatophytes and anaerobes after 48-72 hours incubation. MIC values shown as ranges represent the extremes found in repeat assays. Virtually all such values were written plus or minus one dilution, the accepted variation of a two-fold dilution assay.

[2] = test system: A. fumigatus NRRL 165; test: MIC, agar incorporation method; type: cell-based; details: Aspergillus fumigatus, NRRL165, 32° C., 48-72 hours, read-out: Minimal Inhibitory Concentration
Method: as §1, §2, §3, §4, §5

[3] = test system: Aspergillus niger ATCC 16404; test: MIC, agar incorporation method; type: cell-based; details: ATCC16404, 32° C., 48-72 hours, read-out: Minimal Inhibitory Concentration
Method: as §1, §2, §3, §4, §5

[4] = test system: C. albicans NRRL Y-477; test: MIC, agar incorporation method; type: cell-based; details: Candida albicans, NRRLY477, 32° C., 24 hours, read-out: Minimal Inhibitory Concentration
Method: as §1, §2, §3, §4, §5

[5] = test system: C. guillermondii VM 42; test: MIC, agar incorporation method; type: cell-based; details: 32° C., 24 hours; read-out: Minimal Inhibitory Concentration
Method: as §1, §2, §3, §4, §5

[6] = test system: C. krusei VM 29B; test: MIC, agar incorporation method; type: cell-based; details: Pichia kudriavzevii, VM29B; 32° C., 24 hours; read-out: Minimal Inhibitory Concentration
Method: as §1, §2, §3, §4, §5

[7] = test system: C. tropicalis NRRL Y1410; test: MIC, agar incorporation method; type: cell-based; details: Candida tropicalis, NRRLY1410; 32° C., 24 hours; read-out: Minimal Inhibitory Concentration
Method: as §1, §2, §3, §4, §5

[8] = test system: Candida albicans ATCC 10231; test: MIC, agar incorporation method; type: cell-based; details: ATCC10231, C. albicans ATCC 10231, 32° C., 24 hours, read-out: Minimal Inhibitory Concentration
Method: as §1, §2, §3, §4, §5

[9] = test system: Escherichia coli ATCC 8739; test: MIC, agar incorporation method; type: cell-based; details: ATCC8739, 32° C., 24 hours, read-out: Minimal Inhibitory Concentration
Method: as §1, §2, §3, §4, §5

[10] = test system: Proteus vulgaris NRRL B123; test: MIC, agar incorporation method; type: cell-based; details: NRRLB123, 32° C., 24 hours, read-out: Minimal Inhibitory Concentration
Method: as §1, §2, §3, §4, §5

[11] = test system: Pseudomonas aeruginosa ATCC 14502; test: MIC, agar incorporation method; type: cell-based; details: ATCC14502, 32° C., 24 hours, read-out: Minimal Inhibitory Concentration
Method: as §1, §2, §3, §4, §5

[12] = test system: Sarcina subflava ATCC 7468; test: MIC, agar incorporation method; type: cell-based; details: ATCC7468, 32° C., 24 hours, read-out: Minimal Inhibitory Concentration
Method: as §1, §2, §3, §4, §5

[13] = test system: Staphylococcus aureus ATCC 6538; test: MIC, agar incorporation method; type: cell-based; details: S. aureus ATCC 6538, 32° C., 24 hours; for MIC: Staphylococcus aureus, ATCC6538, read-out: Minimal Inhibitory Concentration
Method: as §1, §2, §3, §4, §5

[14] = test system: Streptococcus faecalis ATCC 10541; test: MIC, agar incorporation method; type: cell-based; details: Enterococcus faecalis, ATCC10541; 32° C., 24 hours; read-out: Minimal Inhibitory Concentration
Method: as §1, §2, §3, §4, §5

[15] = test system: T. mentagrophytes CDC; test: MIC, agar incorporation method; type: cell-based; details: Trichophyton mentagrophytes, 32° C., 48-72 hours, read-out: Minimal Inhibitory Concentration
Method: as §1, §2, §3, §4, §5

[16] = test system: T. mentagrophytes TM-2; test: MIC, agar incorporation method; type: cell-based; details: Trichophyton mentagrophytes, TM2, 32° C., 48-72 hours, read-out: Minimal Inhibitory Concentration
Method: as §1, §2, §3, §4, §5

[17] = test system: T. rubrum ATCC 10218; test: MIC, agar incorporation method; type: cell-based; details: Trichophyton rubrum, ATCC10218; 32° C., 48-72 hours; read-out: Minimal Inhibitory Concentration
Method: as §1, §2, §3, §4, §5

[18] = test system: T. tonsurans ATCC 10217; test: MIC, agar incorporation method; type: cell-based; details: Trichophyton tonsurans, ATCC10217; 32° C., 48-72 hours; read-out: Minimal Inhibitory Concentration
Method: as §1, §2, §3, §4, §5

[19] = test system: Trichophyton mentagrophytes ATCC 4807; test: MIC, agar incorporation method; type: cell-based; details: ATCC4807, 32° C., 48-72 hours, read-out: Minimal Inhibitory Concentration
Method: as §1, §2, §3, §4, §5

[20] = test system: S. aureus NRRL B2747; test: MIC, agar incorporation method; type: cell-based, Staphylococcus aureus; details: 24 hours; for MIC: Staphylococcus aureus, NRRLB2747, 32° C., read-out: Minimal Inhibitory Concentration
Method: as §1, §2, §3, §4, §5

[21] = test system: Bacteriodides fragilis ATCC 8482; test: MIC, agar incorporation method, anaerobic; type: cell-based; details: 48 hours at 35° C., GasPak Anaerobic Jar, read-out: Minimal Inhibitory Concentration
Method: as §1, §2, §3, §4, §5
(§6) *Anaerobic: 48 hours incubation at 35° C. GasPak Anaerobic Jar

[22] = test system: Clostridium acetobutylicum ATCC 824; test: MIC, agar incorporation method, anaerobic; type: cell-based; details: ATCC824, 48 h, 48 hours at 35° C., GasPak Anaerobic Jar, read-out: Minimal Inhibitory Concentration
Method: as §1, §2, §3, §4, §5, §6

[23] = test system: Clostridium sporogenes ATCC 11437; test: MIC, agar incorporation method, anaerobic; type: cell-based; details: ATCC11437, 48 hours at 35° C., GasPak Anaerobic Jar, read-out: Minimal Inhibitory Concentration
Method: as §1, §2, §3, §4, §5, §6

[24] = test system: Propionobacterium acnes ATCC 6919; test: MIC, agar incorporation method, anaerobic; type: cell-based; details: 48 hours at 35° C., GasPak Anaerobic Jar, read-out: Minimal Inhibitory Concentration
Method: as §1, §2, §3, §4, §5, §6

[25] = test system: S. aureus NRRL B2747; test: MIC, agar incorporation method, anaerobic; type: cell-based; details: Staphylococcus aureus, NRRLB2747, 48 hours at 35° C., GasPak Anaerobic Jar, read-out: Minimal Inhibitory Concentration
Method: as §1, §2, §3, §4, §5, §6

[26] = test system: Microsporum gypseum ATCC 14683; test: MIC, agar incorporation method; type: cell-based; details: 48-72 hours; for MIC: Nannizzia gypsea, ATCC14683, 32° C., read-out: Minimal Inhibitory Concentration
Method: as §1, §2, §3, §4, §5

Structure (SMILES) | MIC [1] | MIC [3] | MIC [4] | MIC [5] | MIC [6] | MIC [7] | MIC [8] | MIC [9] | MIC [10] | MIC [11] | MIC [12] | MIC [13] | MIC [14] | MIC [15] | MIC [16] | MIC [17] | MIC [19] | MIC [20] | MIC [22] | MIC [24] | other results
C=C1C(=O)c2ccccc2OC1(c1ccccc1)c1ccccc1 [Ex. 20, 3-methylene-2-phenyl flavanone] | > 100 µg/mL | > 100 µg/mL | > 100 µg/mL | > 100 µg/mL | > 100 µg/mL | > 100 µg/mL | > 100 µg/mL | > 100 µg/mL | > 100 µg/mL | > 100 µg/mL | 1 µg/mL (≈ 3.2 µM) | 0.5 µg/mL (≈ 1.6 µM) | 0.78 to 1 µg/mL (≈ 2.5 to 3.2 µM) | > 100 µg/mL | > 100 µg/mL | > 100 µg/mL | > 100 µg/mL | 0.25 to 0.5 µg/mL (≈ 0.8 to 1.6 µM) | 1 µg/mL (≈ 3.2 µM) | 0.78 to 3.1 µg/mL (≈ 2.5 to 9.92 µM) | MIC [2]: > 100 µg/mL; MIC [18]: > 100 µg/mL; MIC [21]: 0.125 µg/mL (≈ 0.4 µM); MIC [23]: 0.5 µg/mL (≈ 1.6 µM); MIC [25]: 0.25 to 1 µg/mL (≈ 0.8 to 3.2 µM)
C=C1C(=O)c2ccccc2OC1c1ccc([N+](=O)[O-])cc1 (stereo not shown) [Ex. 10, 4'-nitro-3-methylene flavanone] | 12.5 µg/mL (≈ 44.4 µM) | 50 µg/mL (≈ 178 µM) | 25 µg/mL (≈ 88.9 µM) | 50 µg/mL (≈ 178 µM) | 25 µg/mL (≈ 88.9 µM) | 50 µg/mL (≈ 178 µM) | 25 µg/mL (≈ 88.9 µM) | > 100 µg/mL | > 100 µg/mL | > 100 µg/mL | 12.5 µg/mL (≈ 44.4 µM) | ≤ 3.1 µg/mL | 50 µg/mL (≈ 178 µM) | 6.2 µg/mL (≈ 22 µM) | 6.2 µg/mL (≈ 22 µM) | ≤ 3.1 µg/mL | 6.2 µg/mL (≈ 22 µM) | 6.2 µg/mL (≈ 22 µM) | ≤ 100 µg/mL | ≤ 100 µg/mL | MIC [2]: 100 µg/mL (≈ 356 µM); MIC [26]: 6.2 µg/mL (≈ 22 µM)
CN(C)CC1C(=O)c2ccccc2OC1c1ccccc1 (stereo not shown) [MA 1347, 3-(dimethylaminomethyl)flavanone, reference compound] | 6.2 to 25 µg/mL (≈ 22 to 88.9 µM) | 50 µg/mL (≈ 178 µM) | 25 µg/mL (≈ 88.9 µM) | 50 to 100 µg/mL (≈ 178 to 355 µM) | 12.5 to 25 µg/mL (≈ 44.4 to 88.9 µM) | 50 to 100 µg/mL (≈ 178 to 355 µM) | 25 to 50 µg/mL (≈ 88.9 to 178 µM) | > 100 µg/mL | > 100 µg/mL | > 100 µg/mL | 12.5 µg/mL (≈ 44.4 µM) | 6.2 to 12.5 µg/mL (≈ 22 to 44.4 µM) | 50 µg/mL (≈ 178 µM) | 6.2 to 12.5 µg/mL (≈ 22 to 44.4 µM) | 6.2 to 12.5 µg/mL (≈ 22 to 44.4 µM) | 3.1 to 12.5 µg/mL (≈ 11 to 44.4 µM) | 6.2 to 12.5 µg/mL (≈ 22 to 44.4 µM) | 6.2 to 12.5 µg/mL (≈ 22 to 44.4 µM) | ≤ 100 µg/mL | 12.5 µg/mL (≈ 44.4 µM) | Minimal Inhibitory Concentration ([1]; NRRL 163): 5.2 to 25 µg/mL; Minimal Inhibitory Concentration ([26]; 32° C.): 6.12 to 12.5 µg/mL; MIC [26]: 6.2 to 12.5 µg/mL (≈ 22 to 44.4 µM); Minimal Inhibitory Concentration [13]: 6.2 to 12.5 µg/mL; MIC [18]: 6.2 µg/mL (≈ 22 µM); Minimal Inhibitory Concentration ([20]; 32° C.): 6.2 to 12.5 µg/mL; MIC [21]: 3.1 µg/mL (≈ 11 µM); MIC [23]: 6.2 µg/mL (≈ 22 µM); MIC [25]: 25 µg/mL (≈ 88.9 µM)
